The values that follow come from US12336981B2, “Compounds and compositions for the inhibition of NAMPT” (Valo Health, Inc., priority 2010, dated 2025).

Values joined by “and” are separate entries in the source; they are usually repeats but may differ in a detail not shown here. Equal values may be shown once.

The target in one assay is T1, NAMPT (Homo sapiens, UniProt P43490).
T1 construct: His tag; host or cells: E. coli
T1 sequence (P43490 whole entry): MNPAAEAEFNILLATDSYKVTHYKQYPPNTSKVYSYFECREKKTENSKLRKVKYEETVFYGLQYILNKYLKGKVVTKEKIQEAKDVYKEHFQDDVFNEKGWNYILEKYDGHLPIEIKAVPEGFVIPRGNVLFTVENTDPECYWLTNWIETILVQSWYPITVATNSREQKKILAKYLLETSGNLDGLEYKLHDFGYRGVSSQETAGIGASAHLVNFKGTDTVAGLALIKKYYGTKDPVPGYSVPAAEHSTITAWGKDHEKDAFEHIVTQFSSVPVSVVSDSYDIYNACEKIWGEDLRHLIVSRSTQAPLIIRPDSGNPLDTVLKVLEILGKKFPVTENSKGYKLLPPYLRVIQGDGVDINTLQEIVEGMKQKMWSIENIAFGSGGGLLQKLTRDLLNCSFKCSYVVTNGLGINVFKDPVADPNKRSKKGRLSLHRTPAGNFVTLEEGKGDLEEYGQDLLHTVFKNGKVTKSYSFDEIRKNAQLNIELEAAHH
The assay can be described thus: Biochemical inhibition assay: NAMPT enzymatic reaction, NMN quantified by mass spectrometry. The settings on record: NAMPT enzymatic assay; read-out: Biochem IC50. As to the method:
Biochemical Inhibition Assay
NAMPT Protein Purification
Recombinant His-tagged NAMPT was produced in E. coli cells, purified over a Ni column, and further purified over a size-exclusion column by XTAL Biostructures.
The NAMPT Enzymatic Reaction
The NAMPT enzymatic reactions were carried out in Buffer A (50 mM Hepes pH 7.5, 50 mM NaCl, 5 mM MgCl2, and 1 mM THP) in 96-well V-bottom plates. The compound titrations were performed in a separate dilution plate by serially diluting the compounds in DMSO to make a 100× stock. […] The compound and enzyme mix was incubated for 15 minutes at room temperature, then 10 μL of 10× substrate and co-factors in Buffer A were added to the test well to make a final concentration of 1 μM NAM, 100 μM 5-Phospho-D-ribose 1-diphosphate (PRPP), and 2.5 mM Adenosine 5′-triphosphate (ATP). The reaction was allowed to proceed for 30 minutes at room temperature, then was quenched with the addition of 11 μL of a solution of formic acid and L-Cystathionine to make a final concentration of 1% formic acid and 10 μM L-Cystathionine. Background and signal strength was determined by addition (or non-addition) of a serial dilution of NMN to a pre-quenched enzyme and cofactor mix.
A mass spectrometry-based assay was used to measure the NAMPT reaction product (NMN) and the internal control (L-Cystathionine). NMN and L-Cystathionine were detected using the services of Biocius Lifesciences with the RapidFire system. In short, the NMN and L-Cystathionine are bound to a graphitic carbon cartridge in 0.1% formic acid, eluted in 30% acetonitrile buffer, and injected into a Sciex 4000 mass spectrometer. The components of the sample were ionized with electrospray ionization and the positive ions were detected. […] The fragments are quantified and the analyzed by the following method.
First the NMN signal is normalized to the L-Cystathionine signal by dividing the NMN signal by the L-Cystathionine signal for each well. The signal from the background wells are averaged and subtracted from the test plates. […] IC50s are Determined Using Excel and this Formula.
For the compound `O=C(NCc1ccc(S(=O)(=O)c2cccc3c2sc2ccccc23)cc1)c1cc2cnccc2[nH]1`, the IC50 (in general, the concentration that gives 50% inhibition) turned out to be 3.5 nM.
On the same count and under the same terms, the figure for `Cc1nc(-c2cccc(S(=O)(=O)c3ccc(CNC(=O)c4cc5ccncc5o4)cc3)c2)no1` is 7.9 nM; for `O=C(NC1CCCC1)c1cccc(S(=O)(=O)c2ccc(CNC(=O)c3cc4ccncc4o3)cc2)c1` it is 6.6 nM.
Take `CN(C)S(=O)(=O)c1cccc(S(=O)(=O)c2ccc(CNC(=O)c3cc4ccncc4o3)cc2)c1`: the half-maximal inhibitory concentration (IC50) was determined as 2 nM.
Still for that read-out and setting: the figure for `CCS(=O)(=O)c1cccc(S(=O)(=O)c2ccc(CNC(=O)c3cc4ccncc4o3)cc2)c1` is 2.7 nM; for `O=C(NCc1ccc(S(=O)(=O)c2cccc(N3CCOCC3)c2)cc1)c1cc2ccncc2[nH]1` it is 20.7 nM and 8.4 nM; for `CCCS(=O)(=O)Nc1cccc(S(=O)(=O)c2ccc(CNC(=O)c3cc4ccncc4s3)cc2)c1` it is 1.5 nM.
Same read-out and setting: the figure for `O=C(NCc1ccc(S(=O)(=O)c2ccc(Cn3ccnc3)cc2)cc1)c1cc2ccncc2o1` is 19 nM; for `CC(C)Oc1ccc(S(=O)(=O)c2ccc(CNC(=O)c3cnc4nccn4c3)cc2)cc1` it is 4.3 nM.
The same measure, in the same setting: with `O=C(NCc1ccc(S(=O)(=O)c2ccc(F)c(C(F)(F)F)c2)cc1)c1cnc2nccn2c1` the figure was 8 nM; with `O=C(NCc1ccc(S(=O)(=O)c2cc(C(F)(F)F)ccn2)cc1)c1ccc2nccn2c1` [N-({4-[4-(trifluoromethyl)pyridine-2-sulfonyl]phenyl}methyl)imidazo[1,2-a]pyridine-6-carboxamide], 19.7 nM.
On to `O=C(NCc1ccc(S(=O)(=O)c2ccc(F)c(OCC(F)(F)F)c2)cc1)c1cnc2[nH]ncc2c1` [N-[(4-{[4-fluoro-3-(2,2,2-trifluoroethoxy)benzene]sulfonyl}phenyl)methyl]-1H-pyrazolo[3,4-b]pyridine-5-carboxamide], for which the IC50 is 10 nM.
`O=C(NCc1ccc(S(=O)(=O)c2cccc3c2OCC3)cc1)c1cnc2[nH]ncc2c1` [N-{[4-(2,3-dihydro-1-benzofuran-7-sulfonyl)phenyl]methyl}-1H-pyrazolo[3,4-b]pyridine-5-carboxamide]: the half-maximal inhibitory concentration (IC50) came to 24.8 nM.
Still for that read-out and setting: with `Cn1cc2ccc(S(=O)(=O)c3ccc(CNC(=O)c4cc5cnccc5[nH]4)cc3)cc2n1` [N-{[4-(2-methyl-2H-indazole-6-sulfonyl)phenyl]methyl}-1H-pyrrolo[3,2-c]pyridine-2-carboxamide] the figure was 2.5 nM; with `O=C(NCc1ccc(S(=O)(=O)c2cncc(Cl)c2)cc1)c1ccc2nccn2c1` [N-{[4-(5-chloropyridine-3-sulfonyl)phenyl]methyl}imidazo[1,2-a]pyridine-6-carboxamide], 24.4 nM.
Same read-out and setting: the figure for `COc1cccc(S(=O)(=O)c2ccc(CNC(=O)c3cc4ccncc4o3)cc2)n1` [N-{[4-(6-methoxypyridine-2-sulfonyl)phenyl]methyl}furo[2,3-c]pyridine-2-carboxamide] is 2.5 nM; for `O=C(NCc1ccc(S(=O)(=O)c2cncc3ccccc23)cc1)c1cnc2nccn2c1` [N-{[4-(isoquinoline-4-sulfonyl)phenyl]methyl}imidazo[1,2-a]pyrimidine-6-carboxamide] it is 1.6 nM.

The assay is the same for the next values; noted with them: NAMPT enzymatic reaction; read-out: Biochem IC50.
On to `Cc1ccc(S(=O)(=O)c2ccc(CNC(=O)c3cnc4[nH]ncc4c3)cc2)cc1Cl`, for which the IC50 was found to be 6.1 nM.
Still for that read-out and setting: the figure for `CCCOc1ccc(S(=O)(=O)c2ccc(CNC(=O)c3cc4cnccc4[nH]3)cc2)cc1Cl` is 74 nM; for `Cc1cc(F)cc(S(=O)(=O)c2ccc(CNC(=O)c3cc4ccncc4o3)cc2)c1` it is 3.4 nM.
Still for that read-out and setting: with `CC(C)(C)c1cccc(S(=O)(=O)c2ccc(CNC(=O)c3ccc4nccn4c3)cc2)c1` the figure was 9.7 nM.
Still for that read-out and setting: with `COc1ccc(Cl)cc1S(=O)(=O)c1ccc(CNC(=O)c2ccc3nccn3c2)cc1` the figure was 19.1 nM; with `CCCOc1ccc(Cl)cc1S(=O)(=O)c1ccc(CNC(=O)c2ccc3nccn3c2)cc1`, 8 nM.
For `O=C(NCc1ccc(S(=O)(=O)c2ccccc2OC(F)(F)F)cc1)c1ccc2nccn2c1` [N-(4-(2-(trifluoromethoxy)phenylsulfonyl)benzyl)imidazo[1,2-a]pyridine-6-carboxamide], the IC50 is 8 nM.
